Source: patent publication US8263606B2 (Xenon Pharmaceuticals Inc., priority 2008, dated 2012)

Experiments:
[1] = biological target: CYP3A4 (Homo sapiens, UniProt P08684); experiment: Cytochrome P450 (CYP450) Inhibition Assay, CYP3A4 (Vivid fluorescence, BOMCC substrate); conditions: human, P450 Baculosomes (recombinant CYP3A4), probe BOMCC (Vivid substrate)
[2] = tested on: sodium channel; experiment: Guanidine influx assay (14C-guanidine radiotracer flux, in vitro); format: cell-based, human or rat; conditions: guanidine influx assay using a known cell line that expresses a sodium channel; activity level class
Source text: This example describes an in vitro assay for testing and profiling test agents against human or rat sodium channels stably expressed in cells of either an endogenous or recombinant origin. The assay is also useful for determining the IC50 of a sodium channel blocking compound. The assay is based on the guanidine flux assay described by Reddy, N. L., et al., J. Med. Chem. (1998), 41(17):3298-302.
The guanidine influx assay is a radiotracer flux assay used to determine ion flux activity of sodium channels in a high-throughput microplate-based format. The assay uses ^14C-guanidine hydrochloride in combination with various known sodium channel modulators, to assay the potency of test agents. Potency is determined by an IC50 calculation. Selectivity is determined by comparing potency of the compound for the channel of interest to its potency against other sodium channels (also called ‘selectivity profiling’).
Each of the test agents is assayed against cells that express the channels of interest. Voltage gated sodium channels are either TTX sensitive or insensitive. This property is useful when evaluating the activities of a channel of interest when it resides in a mixed population with other sodium channels. The following Table 1 summarizes cell lines useful in screening for a certain channel activity in the presence or absence of TTX.
It is also possible to employ recombinant cells expressing these sodium channels. Cloning and propagation of recombinant cells are known to those skilled in the art (see, for example, Klugbauer, N, et al., EMBO J. (1995), 14(6):1084-90; and Lossin, C., et al., Neuron (2002), 34, pp. 877-884).
Cells expressing the channel of interest are grown according to the supplier or in the case of a recombinant cell in the presence of selective growth media such as G418 (Gibco/Invitrogen). The cells are disassociated from the culture dishes with an enzymatic solution (Ix) Trypsin/EDTA (Gibco/Invitrogen) and analyzed for density and viability using haemocytometer (Neubauer). Disassociated cells are washed and resuspended in their culture media then plated into Scintiplates (Beckman Coulter Inc.) (approximately 100,000 cells/well) and incubated at 37° C./5% CO2 for 20-24 hours. After an extensive wash with Low sodium HEPES-buffered saline solution (LNHBSS) (150 mM Choline Chloride, […] (Sigma), 1 mM Calcium Chloride, 5 mM Potassium Chloride, 1 mM Magnesium Chloride, 10 mM Glucose) agents diluted with LNHBSS are added to each well. (Varying concentrations of test agent may be used). The activation/radiolabel mixture contains aconitine (Sigma) to increase the percentage of time that the sodium channels are open, and ^14C-guanidine hydrochloride (ARC) to measure flux through the voltage-gated sodium channels.
After loading the cells with test agent and activation/radiolabel mixture, the Scintiplates are incubated at ambient temperature. Following the incubation, the Scintplates are extensively washed with LNHBSS supplemented with guanidine (Sigma). The Scintiplates are dried and then counted using a Wallac MicroBeta TriLux (Perkin-Elmer Life Sciences). The ability of the test agent to block sodium channel activity is determined by comparing the amount of ^14C-guanidine present inside the cells expressing the different sodium channels.
The IC50 value of a test agent for a specific sodium channel may be determined using the above general method. […] Typically the mid-point concentration of test agent is set at 1 μM, and sequential concentrations of half dilutions greater or smaller are applied (e.g. 0.5 μM; 5 μM and 0.25 μM; 10 μM and 0.125 μM; 20 μM etc.). The IC50 curve is calculated using the 4 Parameter Logistic Model or Sigmoidal Dose-Response Model formula (fit=(A+((B−A)/(1+((C/x)^D)))).
The fold selectivity, factor of selectivity or multiple of selectivity, is calculated by dividing the IC50 value of the test sodium channel by the reference sodium channel, for example, Nav1.5. […]

Sequence of CYP3A4 (P08684 whole entry): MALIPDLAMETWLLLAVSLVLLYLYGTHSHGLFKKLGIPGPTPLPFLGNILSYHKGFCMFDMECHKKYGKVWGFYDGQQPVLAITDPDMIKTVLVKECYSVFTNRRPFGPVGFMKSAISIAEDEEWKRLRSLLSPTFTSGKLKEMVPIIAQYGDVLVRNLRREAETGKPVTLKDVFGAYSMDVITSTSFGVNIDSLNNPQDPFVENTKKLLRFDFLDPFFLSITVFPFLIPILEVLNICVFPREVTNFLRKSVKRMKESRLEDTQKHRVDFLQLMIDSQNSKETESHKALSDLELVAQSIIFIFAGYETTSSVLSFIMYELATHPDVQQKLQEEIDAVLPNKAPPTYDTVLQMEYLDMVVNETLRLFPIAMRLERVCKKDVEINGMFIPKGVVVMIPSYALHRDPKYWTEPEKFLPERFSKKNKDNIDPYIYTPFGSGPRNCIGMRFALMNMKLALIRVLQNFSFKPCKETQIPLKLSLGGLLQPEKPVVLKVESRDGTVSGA

| Structure (SMILES) | inhibition at 10 µM [1] [%] | IC50 [2] [nM] |
| --- | --- | --- |
| O=C1N(Cc2ncccc2C(F)(F)F)c2ccccc2C12COc1cc3c(cc12)OCCC3 (stereo not drawn) [Example 5.29, 1-{[3-(trifluoromethyl)pyridin-2-yl]methyl}-7,8-dihydro-6H-spiro[furo[2,3-g]chromene-3,3′-indol]-2′(1′H)-one] | < 50 | 100 to 1000 |
| O=C1N(Cc2ccccn2)c2ccccc2C12COc1cc3c(cc12)S(=O)(=O)C=C3 (stereo not drawn) [Example 5.31, 1-(pyridin-2-ylmethyl)spiro[indole-3,3′-thieno[2,3-f][1]benzofuran]-2(1′H)-one 5,5′-dioxide] | < 50 | 1000 to 10000 |
| Cc1cc2c(cc1C)C1(CO2)C(=O)N(CC2CCCCO2)c2ccccc21 (stereo not drawn) [Example 6.2, 5,6-dimethyl-1′-(tetrahydro-2H-pyran-2-ylmethyl)spiro[1-benzofuran-3,3′-indol]-2′(1′H)-one] | > 50 | 100 to 1000 |
| O=C1N(Cc2cccc([N+](=O)[O-])c2)c2ccccc2C12COc1cc3c(cc12)OCCO3 (stereo not drawn) [Example 7.10] | < 50 | 1 to 100 |
| O=C1N(Cc2cncs2)c2ccccc2C12COc1cc3c(cc12)OCCO3 (stereo not drawn) [Example 7.11] | > 50 | 1 to 100 |
| O=C1N(Cc2ccc(C(F)(F)F)cn2)c2ccccc2C12COc1cc3c(cc12)OCCO3 (stereo not drawn) [Example 7.12] | > 50 | 1 to 100 |
| O=C1N(Cc2ncccc2C(F)(F)F)c2ccccc2C12COc1cc3c(cc12)OCCO3 (stereo not drawn) [Example 7.13] | > 50 | 1 to 100 |
| O=C1N(Cc2cc(-c3cccnc3)no2)c2ccccc2C12COc1cc3c(cc12)OCCO3 (stereo not drawn) [Example 7.14] | > 50 | 1 to 100 |
| CN(C)S(=O)(=O)c1cccc(CN2C(=O)C3(COc4cc5c(cc43)OCCO5)c3ccccc32)c1 (stereo not drawn) [Example 7.16, N,N-dimethyl-3-[(2′-oxo-2,3-dihydrospiro[furo[2,3-g][1,4]benzodioxine-8,3′-indol]-1′-(2′H)-yl)methyl]benzenesulfonamide] | > 50 | 1000 to 10000 |
| O=C1N(Cc2cccc(S(=O)(=O)N3CCOCC3)c2)c2ccccc2C12COc1cc3c(cc12)OCCO3 (stereo not drawn) [Example 7.17, 1′-[3-(morpholin-4-ylsulfonyl)benzyl]-2,3-dihydrospiro[furo[2,3-g][1,4]benzodioxine-8,3′-indol]-2′(1′H)-one] | > 50 | 1000 to 10000 |
| Cc1nonc1CN1C(=O)C2(COc3cc4c(cc32)OCCO4)c2ccccc21 (stereo not drawn) [Example 7.18, 1′-[(4-methyl-1,2,5-oxadiazol-3-yl)methyl]-2,3-dihydrospiro[furo[2,3-g][1,4]benzodioxine-8,3′-indol]-2′(1′H)-one] | < 50 | 1 to 100 |
| O=C1N(Cc2cccc(F)c2F)c2ccccc2C12COc1cc3c(cc12)OCCO3 (stereo not drawn) [Example 7.19, 1-(2,3-difluorobenzyl)-2,3-dihydrospiro[furo[2,3-g][1,4]benzodioxine-8,3′-indol]-2′(1′H)-one] | > 50 | 1 to 100 |
| O=C1N(Cc2cc(F)cc(F)c2)c2ccccc2C12COc1cc3c(cc12)OCCO3 (stereo not drawn) [Example 7.20, 1′-(3,5-difluorobenzyl)-2,3-dihydrospiro[furo[2,3-g][1,4]benzodioxine-8,3′-indol]-2′(1′H)-one] | > 50 | 1 to 100 |
| O=C1N(Cc2ccc(F)cc2)c2ccccc2C12COc1cc3c(cc12)OCCO3 (stereo not drawn) [Example 7.21, 1′-(4-fluorobenzyl)-2,3-dihydrospiro[furo[2,3-g][1,4]benzodioxine-8,3′-indol]-2′(1′H)-one] | > 50 | 1 to 100 |
| O=C1N(Cc2ccc(F)cc2Cl)c2ccccc2C12COc1cc3c(cc12)OCCO3 (stereo not drawn) [Example 7.22, 1′-(2-chloro-4-fluorobenzyl)-2,3-dihydrospiro[furo[2,3-g][1,4]benzodioxine-8,3′-indol]-2′(1′H)-one] | < 50 | 1 to 100 |
| Cn1nnc2cc(CN3C(=O)C4(COc5cc6c(cc54)OCCO6)c4ccccc43)ccc21 (stereo not drawn) [Example 7.23, 1′-[(1-methyl-1H-benzotriazol-5-yl)methyl]-2,3-dihydrospiro[furo[2,3-g][1,4]-benzodioxine-8,3′-indol]-2′(1′H)-one] | < 50 | 1 to 100 |
| O=C1N(Cc2cccc(OC(F)(F)F)c2)c2ccccc2C12COc1cc3c(cc12)OCCO3 (stereo not drawn) [Example 7.24, 1′-[(3-trifluoromethoxy)benzyl]-2,3-dihydrospiro[furo[2,3-g][1,4]benzodioxine-8,3′-indol]-2′(1′H)-one] | > 50 | 1 to 100 |

The remaining lines, values ahead:

| inhibition at 10 µM [1] [%] | IC50 [2] [nM] | Structure (SMILES) |
| --- | --- | --- |
| < 50 | 1 to 100 | O=C1N(Cc2c(F)cccc2C(F)(F)F)c2ccccc2C12COc1cc3c(cc12)OCCO3 (stereo not drawn) [Example 7.25, 1′-[(2-fluoro-6-trifluoromethyl)benzyl]-2,3-dihydrospiro[furo[2,3-g][1,4]benzodioxine-8,3′-indol]-2′(1′H)-one] |
| < 50 | 1 to 100 | O=C1N(Cc2cc(C(F)(F)F)ccc2F)c2ccccc2C12COc1cc3c(cc12)OCCO3 (stereo not drawn) [Example 7.26, 1′-[(2-fluoro-5-trifluoromethyl)benzyl]-2,3-dihydrospiro[furo[2,3-g][1,4]benzodioxine-8,3′-indol]-2′(1′H)-one] |
| < 50 | 1 to 100 | O=C1N(Cc2ccccc2OC(F)(F)F)c2ccccc2C12COc1cc3c(cc12)OCCO3 (stereo not drawn) [Example 7.27, 1′-[(2-trifluoromethoxy)benzyl]-2,3-dihydrospiro[furo[2,3-g][1,4]benzodioxine-8,3′-indol]-2′(1′H)-one] |
| > 50 | 1 to 100 | CC1(C)COC(C)(CCN2C(=O)C3(COc4cc5c(cc43)OCCO5)c3ccccc32)OC1 (stereo not drawn) [Example 7.28] |
| < 50 | 1 to 100 | O=C1N(C[C@H]2CCCO2)c2c(F)cccc2C12COc1cc3c(cc12)CCO3 (stereo partly drawn) [Example 8.2, 7′-fluoro-1′-[(2R)-tetrahydrofuran-2-ylmethyl]-5,6-dihydrospiro[benzo[1,2-b:5,4-b′]difuran-3,3′-indol]-2′(1′H)-one] |
| > 50 | 1 to 100 | O=C1N(Cc2cncc(F)c2)c2ccccc2C12COc1cc3c(cc12)OCCO3 (stereo not drawn) [Example 8.18, 1′-[(5-fluoropyridin-3-yl)methyl]-2,3-dihydrospiro[furo[2,3-g][1,4]benzodioxine-8,3′-indol]-2′(1′H)-one] |
| < 50 | 1 to 100 | COC(=O)c1ccccc1CN1C(=O)C2(COc3cc4c(cc32)CCO4)c2ccccc21 (stereo not drawn) [Example 9.14, methyl 2-[(2′-oxo-5,6-dihydrospiro[benzo[1,2-b:5,4-b′]difuran-3,3′-indol]-1′(2′H)-yl)methyl]benzoate] |
| < 50 | 1000 to 10000 | COc1cc2c(cc1F)C1(CO2)C(=O)N(CC2CCOCC2)c2ccccc21 (stereo not drawn) [Example 9.29, 5-fluoro-6-methoxy-1-(tetrahydro-2H-pyran-4-ylmethyl)spiro[1-benzofuran-3,3′-indol]-2′(1′H)-one] |
| > 50 | 1000 to 10000 | O=C1N(Cc2ccc(C(F)(F)F)o2)c2ccccc2C12COc1cc(F)c(F)cc12 (stereo not drawn) [Example 9.32, 5,6-difluoro-1′-{[5-(trifluoromethyl)furan-2-yl]methyl}spiro[1-benzofuran-3,3′-indol]-2′(1′H)-one] |
| > 50 | 100 to 1000 | COc1ccc2c(c1)OCC21C(=O)N(CC2CCOCC2)c2ccccc21 (stereo not drawn) [Example 9.35, 6-methoxy-1′-(tetrahydro-2H-pyran-4-ylmethyl)spiro[1-benzofuran-3,3′-indol]-2′(1′H)-one] |
